# Measured values from patent US12122778B2, “Activating pyruvate kinase R” (Novo Nordisk Health Care AG, priority 2018, dated 2024).
# Target: PKR(wt) (Homo sapiens, UniProt P30613)
# Assay: Luminescence Biochemical Assay (Kinase Glo Plus), wild type PKR
# Conditions: without FBP; for activation at 1.54 µM: 1.54 μM compound, read-out: AC50 LUM KGP woFBP % Fold@1.54 μM mean; for AC50: read-out: AC50 LUM KGP woFBP AC50 μM gmean; for Emax: read-out: AC50 LUM KGP woFBP MAX % FOLD mean
# Protocol: In some embodiments, a PKR Activating Compound can have: (1) an AC50 value of less than 0.1 μM (e.g., compounds with AC50 values of “+++” in Table 13), 0.1-1.0 μM (e.g., compounds with AC50 values of “++” in Table 13), or 1.01-40 μM (e.g., compounds with AC50 values of “+” in Table 13); (2) a MAX % Fold of 75%-250%, 250-500%, or 75%-500%; and/or (3) a % Fold@1.54 μM of 75%-250%, 250-500%, or 75%-500%. In some embodiments, a PKR Activating Compound has (1) an AC50 value of less than 1.0 μM; (2) a MAX % Fold of 75%-500%; and/or (3) a % Fold@1.54 μM of 75%-500%.
# The phosphorylation of Adenosine-5′-diphosphate (ADP) by various mutants of PKR was determined by the Kinase Glo Plus Assay (Promega) in the presence or absence of FBP [D-Fructose-1,6-diphosphate; BOC Sciences, CAS: 81028-91-3] as follows. Unless otherwise indicated, all reagents were purchased from Sigma-Aldrich. All reagents were prepared in buffer containing 50 mM Tris-HCl, 100 mM KCl, 5 mM MgCl2, and 0.01% Triton X100, 0.03% BSA, and 1 mM DTT. Enzyme and PEP [Phospho(enol) pyruvic acid] were added at 2× to all wells of an assay-ready plate containing serial dilutions of test compounds or DMSO vehicle. Final enzyme concentrations for PKR(wt), PKR(R510Q), and PKR(G332S) were 0.8 nM, 0.8 nM, and 10 nM respectively. Final PEP concentration was 100 μM. The Enzyme/PEP mixture was incubated with compounds for 30 minutes at RT before the assay was initiated with the addition of 2×ADP [Adenosine-5′-diphosphate] and KinaseGloPlus. Final concentration of ADP was 100 μM. […] For assays containing FBP, that reagent is added at 30 μM upon reaction initiation. Reactions were allowed to progress for 45 minutes at RT until luminescence was recorded by the BMG PHERAstar FS Multilabel Reader. All compounds were tested in triplicate at concentrations ranging from 42.5 μM to 2.2 nM in 0.83% DMSO.
# Luminescence values were converted to % Fold increase by normalizing to the average of the DMSO control and multiplying by 100. Max, min, slope and AC50 were determined by the standard four parameter fit algorithm of ActivityBase XE Runner. Compounds were evaluated with three parameters—AC50, MAX % Fold, and % Fold@1.54 μM (FIG. 1). The AC50 value for a compound is the concentration (μM) corresponding to the midway between the maximum and minimum values of the four parameter logistic curve fit (i.e., at which the % fold increase along the four parameter logistic curve fit is halfway between MAX % Fold and MIN % Fold (% Fold Midpoint)), MAX % Fold is the highest fold increase observed at any concentration of compound, and % Fold@1.54 μM is the fold increase at a compound concentration of 1.54 μM. The parameter % Fold@1.54 μM was selected to capture elements of both the AC50 and MAX % Fold and to provide a ranking based on both potency and effect. The compound concentration of 1.54 μM was chosen as one that can optimally differentiate the set of compounds based on the range of activities observed.
# As set forth in Table 13 below, AC50 values (columns A, D, G) are defined as follows: ≤0.1 μM (+++); >0.1 μM and ≤1.0 μM (++); >1.0 μM and ≤40 μM (+); >40 μM (0). Max % FOLD values (columns B, E, H) are defined as follows: ≤75% (+); >75% and ≤250% (++); >250% and ≤500% (+++). % Fold@1.54 μM values (columns C, F, J) are defined as follows: ≤75% (+); >75% and ≤250% (++); >250% and ≤50000 (+++).
# PKR(wt), sequence (P30613 whole entry): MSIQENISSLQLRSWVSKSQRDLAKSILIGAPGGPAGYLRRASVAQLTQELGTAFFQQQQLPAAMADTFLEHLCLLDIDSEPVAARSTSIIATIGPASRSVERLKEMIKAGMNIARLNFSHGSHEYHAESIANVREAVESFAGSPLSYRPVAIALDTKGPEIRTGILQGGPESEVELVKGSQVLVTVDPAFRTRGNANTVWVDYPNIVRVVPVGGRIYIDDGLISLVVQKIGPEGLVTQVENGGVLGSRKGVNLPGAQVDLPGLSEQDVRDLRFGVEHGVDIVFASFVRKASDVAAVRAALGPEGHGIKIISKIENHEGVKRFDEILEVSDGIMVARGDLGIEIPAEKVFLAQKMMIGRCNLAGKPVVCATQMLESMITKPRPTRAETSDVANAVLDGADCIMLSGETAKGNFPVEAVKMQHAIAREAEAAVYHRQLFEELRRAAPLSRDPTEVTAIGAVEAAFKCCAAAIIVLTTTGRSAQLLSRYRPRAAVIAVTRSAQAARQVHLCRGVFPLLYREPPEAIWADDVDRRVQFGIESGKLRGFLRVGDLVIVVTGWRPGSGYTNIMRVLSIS
Compound,activation at 1.54 µM,AC50,Emax
"O=C(c1ccccn1)N1CC2=C(C1)CN(S(=O)(=O)c1ccc3occc3c1)C2 [Example 18-83, 2-[5-(1-Benzofuran-5-sulfonyl)-1H,2H,3H,4H,5H,6H-pyrrolo[3,4-c]pyrrole-2-carbonyl]pyridine]",75 to 250%,1 to 40 µM,75 to 250%
"O=C(N1CC2=C(C1)CN(S(=O)(=O)c1ccc3occc3c1)C2)C1(O)CC1 [Example 1-4, (5-(Benzofuran-5-ylsulfonyl)-3,4,5,6-tetrahydropyrrolo[3,4-c]pyrrol-2(1H)-yl)(1-hydroxycyclopropyl)methanone]",75 to 250%,0.1 to 1 µM,250 to 500%
"CS(=O)(=O)NCC(=O)N1CC2=C(C1)CN(S(=O)(=O)c1ccc3occc3c1)C2 [Example 1-1, N-(2-(5-(benzofuran-5-ylsulfonyl)-3,4,5,6-tetrahydropyrrolo[3,4-c]pyrrol-2(1H)-yl)-2-oxoethyl)methanesulfonamide]",75 to 250%,0.1 to 1 µM,75 to 250%
"NS(=O)(=O)c1ccc(S(=O)(=O)N2CC3=C(CN(C(=O)[C@H](O)c4ccccc4)C3)C2)cc1 [Example 13-1, (R)-4-((5-(2-hydroxy-2-phenylacetyl)-3,4,5,6-tetrahydropyrrolo[3,4-c]pyrrol-2(1H)-yl)sulfonyl)benzenesulfonamide]",75 to 250%,1 to 40 µM,75 to 250%
"CN1CCOc2ccc(S(=O)(=O)N3CC4=C(CN(C(=O)C5CCCC5)C4)C3)cc21 [Example 18-78, 6-({5-Cyclopentanecarbonyl-1H,2H,3H,4H,5H,6H-pyrrolo[3,4-c]pyrrol-2-yl}sulfonyl)-4-methyl-3,4-dihydro-2H-1,4-benzoxazine]",75 to 250%,1 to 40 µM,75 to 250%
"O=C([C@H](O)c1ccccc1)N1CC2=C(C1)CN(S(=O)(=O)c1ccccc1OC(F)(F)F)C2 [Example 18-46, (2R)-2-hydroxy-2-phenyl-1-{5-[2-(trifluoromethoxy)benzenesulfonyl]-1H,2H,3H,4H,5H,6H-pyrrolo[3,4-c]pyrrol-2-yl}ethan-1-one]",75 to 250%,1 to 40 µM,75 to 250%
"CC[C@H](O)C(=O)N1CC2=C(C1)CN(S(=O)(=O)c1ccc3c(c1)N(C)CCO3)C2 [Example 18-75, (2S)-2-hydroxy-1-{5-[(4-methyl-3,4-dihydro-2H-1,4-benzoxazin-6-yl)sulfonyl]-1H,2H,3H,4H,5H,6H-pyrrolo[3,4-c]pyrrol-2-yl}butan-1-one]",75 to 250%,1 to 40 µM,75 to 250%
"O=C(NCc1cccnc1)N1CC2=C(C1)CN(S(=O)(=O)c1ccc3occc3c1)C2 [Example 3-4, 5-(Benzofuran-5-ylsulfonyl)-N-(pyridin-3-ylmethyl)-3,4,5,6-tetrahydropyrrolo[3,4-c]pyrrole-2(1H)-carboxamide]",75 to 250%,0.1 to 1 µM,75 to 250%
"CN(C)CCC(=O)N1CC2=C(C1)CN(S(=O)(=O)c1ccc3occc3c1)C2 [Example 1-5, 1-(5-(Benzofuran-5-ylsulfonyl)-3,4,5,6-tetrahydropyrrolo[3,4-c]pyrrol-2(1H)-yl)-3-(dimethylamino)propan-1-one]",75 to 250%,1 to 40 µM,75 to 250%
"CN1CCOc2ccc(S(=O)(=O)N3CC4=C(CN(C(=O)[C@@H]5CCCO5)C4)C3)cc21 [Example 18-77, 4-Methyl-6-({5-[(2S)-oxolane-2-carbonyl]-1H,2H,3H,4H,5H,6H-pyrrolo[3,4-c]pyrrol-2-yl}sulfonyl)-3,4-dihydro-2H-1,4-benzoxazine]",75 to 250%,1 to 40 µM,75 to 250%
"COC[C@@H](C)NC(=O)N1CC2=C(C1)CN(S(=O)(=O)c1ccc3occc3c1)C2 [Example 3-3, (R)-5-(benzofuran-5-ylsulfonyl)-N-(1-methoxypropan-2-yl)-3,4,5,6-tetrahydropyrrolo[3,4-c]pyrrole-2(1H)-carboxamide]",75 to 250%,1 to 40 µM,75 to 250%
"NCC1(C(=O)N2CC3=C(C2)CN(S(=O)(=O)c2ccc4occc4c2)C3)CC1 [Example 2-1, (1-(Aminomethyl)cyclopropyl)(5-(benzofuran-5-ylsulfonyl)-3,4,5,6-tetrahydropyrrolo[3,4-c]pyrrol-2(1H)-yl)methanone]",75 to 250%,1 to 40 µM,75 to 250%
"Cc1cnc(C(=O)N2CC3=C(C2)CN(S(=O)(=O)c2ccc4occc4c2)C3)cn1 [Example 18-82, 2-[5-(1-Benzofuran-5-sulfonyl)-1H,2H,3H,4H,5H,6H-pyrrolo[3,4-c]pyrrole-2-carbonyl]-5-methylpyrazine]",75 to 250%,1 to 40 µM,75 to 250%
"CC(C)(O)C(=O)N1CC2=C(C1)CN(S(=O)(=O)c1ccc3occc3c1)C2 [Example 1-3, 1-(5-(Benzofuran-5-ylsulfonyl)-3,4,5,6-tetrahydropyrrolo[3,4-c]pyrrol-2(1H)-yl)-2-hydroxy-2-methylpropan-1-one]",75 to 250%,0.1 to 1 µM,250 to 500%
"O=C(c1csc(Nc2cccnc2)n1)N1CC2=C(C1)CN(S(=O)(=O)c1ccc3occc3c1)C2 [Example 18-79, N-{4-[5-(1-benzofuran-5-sulfonyl)-1H,2H,3H,4H,5H,6H-pyrrolo[3,4-c]pyrrole-2-carbonyl]-1,3-thiazol-2-yl}pyridin-3-amine]",250 to 50000%,0.1 to 1 µM,250 to 500%

# The next lines start with the values.
activation at 1.54 µM,AC50,Emax,Compound
250 to 50000%,0.1 to 1 µM,250 to 500%,"O=C(OCc1cccc(F)c1)N1CC2=C(C1)CN(S(=O)(=O)c1ccc3occc3c1)C2 [Example 22-6, (3-Fluorophenyl)methyl 5-(1-benzofuran-5-sulfonyl)-1H,2H,3H,4H,5H,6H-pyrrolo[3,4-c]pyrrole-2-carboxylate]"
75 to 250%,1 to 40 µM,250 to 500%,"Cc1cc(C(C)NC(=O)N2CC3=C(C2)CN(S(=O)(=O)c2ccc(OC(F)F)cc2)C3)c(C)o1 (stereo not drawn) [Example 21-4, 5-[4-(Difluoromethoxy)benzenesulfonyl]-N-[1-(2,5-dimethylfuran-3-yl)ethyl]-1H,2H,3H,4H,5H,6H-pyrrolo[3,4-c]pyrrole-2-carboxamide]"
250 to 50000%,≤ 0.1 µM,250 to 500%,"O=C(NCc1ccco1)N1CC2=C(C1)CN(S(=O)(=O)c1ccc(OC(F)F)cc1)C2 [Example 21-2, 5-[4-(Difluoromethoxy)benzenesulfonyl]-N-(furan-2-ylmethyl)-1H,2H,3H,4H,5H,6H-pyrrolo[3,4-c]pyrrole-2-carboxamide]"
75 to 250%,1 to 40 µM,250 to 500%,"Cc1ccc(C(C)NC(=O)N2CC3=C(C2)CN(S(=O)(=O)c2ccc(OC(F)F)cc2)C3)s1 (stereo not drawn) [Example 21-7, 5-[4-(Difluoromethoxy)benzenesulfonyl]-N-[1-(5-methylthiophen-2-yl)ethyl]-1H,2H,3H,4H,5H,6H-pyrrolo[3,4-c]pyrrole-2-carboxamide]"
75 to 250%,1 to 40 µM,250 to 500%,"Cc1ccc(C(C)NC(=O)N2CC3=C(C2)CN(S(=O)(=O)c2ccc(OC(F)F)cc2)C3)o1 (stereo not drawn) [Example 21-3, 5-[4-(Difluoromethoxy)benzenesulfonyl]-N-[1-(5-methylfuran-2-yl)ethyl]-1H,2H,3H,4H,5H,6H-pyrrolo[3,4-c]pyrrole-2-carboxamide]"
